# Measured values as given in ChEMBL document CHEMBL1140370, “Molecular modeling and molecular dynamics simulation of the human A2B adenosine receptor. The study of the possible binding modes of the A2B receptor antagonists” (J Med Chem, 2005).
# Target: T1, Adenosine receptor A2b (Homo sapiens, UniProt P29275)
# T1 sequence (P29275 whole entry): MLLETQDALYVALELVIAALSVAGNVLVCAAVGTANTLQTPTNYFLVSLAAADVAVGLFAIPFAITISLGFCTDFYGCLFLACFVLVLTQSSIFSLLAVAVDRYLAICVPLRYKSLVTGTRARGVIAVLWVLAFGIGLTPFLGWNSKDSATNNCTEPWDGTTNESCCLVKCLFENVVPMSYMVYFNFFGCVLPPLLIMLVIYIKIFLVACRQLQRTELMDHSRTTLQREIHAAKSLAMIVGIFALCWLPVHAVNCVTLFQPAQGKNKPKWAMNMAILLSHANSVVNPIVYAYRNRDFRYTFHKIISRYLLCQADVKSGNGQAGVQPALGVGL
# Experiment: Antagonist activity against human Adenosine A2b receptor
# Format: functional
row,Ki [nM],SMILES
1,18,CCCn1c(=O)c2[nH]c(-c3cc(OCC(=O)O)no3)nc2n(CCC)c1=O
2,4.8,CCCn1c(=O)c2[nH]c(-c3ccc(OCC(=O)Nc4ccc(F)cc4)nc3)nc2n(CCC)c1=O
